Experimental data published in patent publication US6290959A (New York University, dated 2001).

B1: bovine uroplakin II (mature) (other)
chain: ELVSVVDSGSGFTVTRLSAYQVTNLAPGTKYYISYLVTKGASTESSREIPMSTFPRRKAESIGLAMARTGGMVVITVLLSVAMFLLVLGLIIALALGARK

Assays:
[1] = system: type 1-fimbriated E. coli; experiment: In vitro bacterial adherence assay: binding of 35S-labelled E. coli to immobilized bovine urothelial plaques (asymmetric unit membranes); settings: 2x10^5 cpm; for effect of sugars on bacterial binding to bovine asymmetrical unit membranes: E. coli SH48 (type 1 only), preincubated with sugar, 0.2 μg immobilized bovine AUM
Procedure: Purified asymmetric unit membranes were suspended in PBS and incubated in 96-well polystyrene microtiter plates at room temperature for 30 minutes, then at 4° C. for 16 hours. All subsequent steps were carried out at room temperature. After being washed three times with PBS for two hours, the immobilized asymmetric membrane units were incubated with 2% BSA in PBS for two hours, and ^35 S-labelled bacteria were incubated in 2% BSA and 0.1% NaN3 for two hours. The wells were then washed four times with PBS, and the bound bacteria were dissolved in 1% SDS for 30 minutes and quantitated by scintillation counting. All binding studies were performed in triplicate.
Purified bovine urothelial plaques, consisting of asymmetric unit membranes that cover 70-80% of the urothelial apical surface, were immobilized on microtiter wells (0.2 microgram per well). The unoccupied binding sites were blocked with 3% BSA in PBS. BSA was used to coat the control wells. The E. coli strains used were J96, which express type 1 fimbriae as well as P fimbriae carrying the G-1 and G-2 adhesins; SH48, which expresses type 1 fimbriae only; HU849, which expresses P fimbriae carrying G-1 adhesin; IA2, which expresses P fimbriae carrying G-adhesins; and nonfimbriated P678-54.
^35 [S]methionine-labelled bacteria were added to each well (2×10^5 cpm in 10^7 bacteria suspended in PBS). After incubation at 25° C. for two hours, the wells were washed with PBS and the radioactivities of the bound bacteria, dissolved in 1% SDS, were counted. Each value represents the means of triplicates bracketed by the standard deviation (±15%). It should be noted that only the type 1-fimbriated J96 and SH48 strains, but not the P-expressing HU849 and IA2 or the nonfimbriated P678-54, adhered to the asymmetric unit membranes.
In FIG. 1B, the relative contribution of type 1 and P fimbriae in the binding of J96 to asymmetric unit membranes is shown. ^35 S-labelled J96 (2×10^5 cpm) were incubated with immobilized asymmetric unit membranes in the absence or the presence of 2% D-mannose.
To test the effects of sugars on the binding of type-1 fimbriated E. coli to bovine urothelial plaques, 2×10^5 cpm of radiolabeled E. coli (SH48) were preincubated with D-mannose (Man), methyl-α-D-mannopyranoside(MMP), or D-galactose (Gal) before they were incubated with 0.2 μg of immobilized bovine asymmetrical unit membranes.

[2] = system: type 1-fimbriated bacteria; experiment: Bacterial (gel) overlay assay: radiolabelled bacteria on SDS/PAGE-resolved uroplakins on nitrocellulose; type: binding, E. coli; settings: bovine uroplakins on nitrocellulose, autoradiography
Procedure: Asymmetric unit membrane proteins were resolved by SDS/PAGE (17% acrylamide; acrylamide/bisacrylamide=10:1) and electrophoretically transferred to nitrocellulose. After a brief incubation in 3% BSA in PBS to block the unoccupied sites, the nitrocellulose sheet was incubated with ^35 [S]methionine-labelled bacteria in 2% BSA and 0.1% NaN3. After three washings in PBS, the nitrocellulose was air-dried and autoradiographed.
To determine which of the asymmetric membrane proteins are responsible for this binding, a gel overlay assay was performed. Uroplakins were resolved by SDS/PAGE (cf. FIGS. 5A and 5B), transferred to nitrocellulose, and incubated with radiolabelled bacteria. […] The two major bacterial binding proteins were identified as the two closely related uroplakin proteins, i.e., the 27 kDa-uroplakin Ia and the 28 kDa-uroplakin Ib, according to their sizes and immunoreactivities (FIG. 5B, lanes 1 and 2). […] To determine whether the carbohydrate moieties of uroplakin I proteins were responsible for the binding of the type 1 fimbriae, as one might expect from the inhibitory effects of mannose (cf. FIG. 4), the effects of deglycosylation were tested, results shown in FIGS. 5D and E. Endo H removed about […] of sugars from uroplakin I proteins (cf. FIG. 5D, lanes 2 and 5). […]

[3] = target: E. coli strain SH48, expressing type 1 fimbriae only (FimH adhesin) (E. coli, UniProt P08191); experiment: overlay of radiolabelled bacteria on SDS/PAGE-resolved uroplakins on nitrocellulose

Molecule	effect of sugars on bacterial binding to bovine asymmetrical unit membranes [1]	inhibition of binding of type 1-fimbriated bacteria to uroplakin protein bands [2]	binding of J96 to asymmetric unit membranes in the presence of mannose ([1]; E. coli strain J96 (type 1 and P fimbriae), 2% D-mannose, immobilized bovine AUM)	binding result [3]
O=C[C@H](O)[C@@H](O)[C@@H](O)[C@H](O)CO [D-galactose]	not	not		
O=C[C@@H](O)[C@@H](O)[C@H](O)[C@H](O)CO [D-mannose]	greatly inhibited	inhibited	completely blocked	
CO[C@H]1O[C@H](CO)[C@@H](O)[C@H](O)[C@@H]1O [methyl-α-D-mannopyranoside]	greatly inhibited			
B1				no binding
